# Where a SMILES comes first, the peptide text is derived from it. [ ]: non-standard residue; d: D form.
# Test system: spleen cell subsets (cell surface antigens)
# Assay: In vivo/ex vivo immunophenotyping in the spleen, mice treated 4 consecutive days
# Design: species or system C57BL/6 mice
# Description: C57BL.backslash.6 mice are treated with 0, 50, 100, 200, and 300 mg/kg of drug (in saline) for 4 consecutive days. Blood is taken by cardiac puncture on day 5, and the lymphocytes are isolated from spleen in the following manner:
# The spleen is aseptically removed and mashed by pressing against a steel strainer with a rubber plunger. The cell suspension is separated from the clumps by letting them settle at the bottom of the tube. The cell suspension is then separated on a Lymphocyte M layer and the interface is recovered and resuspended in media.
# 1. Immunophenotyping (blood and spleen)
# Cell immunophenotyping is performed on blood and spleen. The following cell surface antigens are analyzed:
# CD4 (T helper/inducer, binds class II-restricted T cells);
# CD8 (cytotoxic T cells, CTL adhesion);
# MAC-1 (monocyte/macrophage);
# NK (natural killer cells);
# CD45 (all leukocytes, protein tyrosine phosphatase).
structure (smiles),measurement,setting,value
"NCCCC[C@@H](N)C(=O)N[C@@H](CC(N)=O)C(=O)N1CCC[C@H]1C(=O)N[C@@H](Cc1ccc(O)cc1)C(=O)O [PEPTIDE #5, H-(D-Lys)-Asn-Pro-Tyr-OH] (H-[dK]NPY-OH)","TCR(T) cell subset, relative percentage, MEAN","100 mg/kg, first assay",39.83
same,"CD4+ CD8+ cell subset, relative percentage, MEAN","100 mg/kg, second assay",0.53
same,"CD4+ CD8- cell subset, relative percentage, MEAN","100 mg/kg, second assay",31.78
same,"CD4+ CD11b+ cell subset, relative percentage, MEAN","100 mg/kg, second assay",0.33
same,"CD4+ CD11b- cell subset, relative percentage, MEAN","100 mg/kg, second assay",14.65
same,"CD4- CD8+ cell subset, relative percentage, MEAN","100 mg/kg, second assay",4.68
same,"CD4- CD8- cell subset, relative percentage, MEAN","100 mg/kg, second assay",63.03
same,"CD4- CD11b+ cell subset, relative percentage, MEAN","100 mg/kg, second assay",3.53
same,"CD4- CD11b- cell subset, relative percentage, MEAN","100 mg/kg, second assay",81.53
same,"CD45+ CD4+ cell subset, relative percentage, MEAN","100 mg/kg, second assay",26.40
same,"CD45+ CD4- cell subset, relative percentage, MEAN","100 mg/kg, second assay",50.20
same,"CD45+ CD8+ cell subset, relative percentage, MEAN","100 mg/kg, second assay",4.80
same,"CD45+ CD8- cell subset, relative percentage, MEAN","100 mg/kg, second assay",73.48
same,"CD45- CD4+ cell subset, relative percentage, MEAN","100 mg/kg, second assay",6.83
same,"CD45- CD4- cell subset, relative percentage, MEAN","100 mg/kg, second assay",16.60
same,"CD45- CD8+ cell subset, relative percentage, MEAN","100 mg/kg, second assay",0.10
same,"CD45- CD8- cell subset, relative percentage, MEAN","100 mg/kg, second assay",21.68
same,"Ly5(B) cell subset, relative percentage, MEAN","100 mg/kg, second assay",48.28
same,"NK+ CD3+ cell subset, relative percentage, MEAN","100 mg/kg, second assay",2.25
same,"NK+ CD3- cell subset, relative percentage, MEAN","100 mg/kg, second assay",4.10
same,"NK- CD3+ cell subset, relative percentage, MEAN","100 mg/kg, second assay",28.65
same,"NK- CD3- cell subset, relative percentage, MEAN","100 mg/kg, second assay",65.05
same,"TCR(T) cell subset, relative percentage, MEAN","100 mg/kg, second assay",40.33
same,"CD4+ CD8+ cell subset, relative percentage, MEAN","200 mg/kg, first assay",0.63
same,"CD4+ CD8- cell subset, relative percentage, MEAN","200 mg/kg, first assay",33.73
same,"CD4+ CD11b+ cell subset, relative percentage, MEAN","200 mg/kg, first assay",1.00
same,"CD4+ CD11b- cell subset, relative percentage, MEAN","200 mg/kg, first assay",22.65
same,"CD4- CD8+ cell subset, relative percentage, MEAN","200 mg/kg, first assay",5.68
same,"CD4- CD8- cell subset, relative percentage, MEAN","200 mg/kg, first assay",60.00
same,"CD4- CD11b+ cell subset, relative percentage, MEAN","200 mg/kg, first assay",3.58
same,"CD4- CD11b- cell subset, relative percentage, MEAN","200 mg/kg, first assay",72.00
same,"CD45+ CD4+ cell subset, relative percentage, MEAN","200 mg/kg, first assay",21.18
same,"CD45+ CD4- cell subset, relative percentage, MEAN","200 mg/kg, first assay",54.03
same,"CD45+ CD8+ cell subset, relative percentage, MEAN","200 mg/kg, first assay",5.28
same,"CD45+ CD8- cell subset, relative percentage, MEAN","200 mg/kg, first assay",64.83
same,"CD45- CD4+ cell subset, relative percentage, MEAN","200 mg/kg, first assay",14.33
same,"CD45- CD4- cell subset, relative percentage, MEAN","200 mg/kg, first assay",10.48
same,"CD45- CD8+ cell subset, relative percentage, MEAN","200 mg/kg, first assay",0.55
same,"CD45- CD8- cell subset, relative percentage, MEAN","200 mg/kg, first assay",29.35
same,"Ly5(B) cell subset, relative percentage, MEAN","200 mg/kg, first assay",59.50
same,"NK+ CD3+ cell subset, relative percentage, MEAN","200 mg/kg, first assay",1.95
same,"NK+ CD3- cell subset, relative percentage, MEAN","200 mg/kg, first assay",3.88
same,"NK- CD3+ cell subset, relative percentage, MEAN","200 mg/kg, first assay",35.70
same,"NK- CD3- cell subset, relative percentage, MEAN","200 mg/kg, first assay",58.50
same,"TCR(T) cell subset, relative percentage, MEAN","200 mg/kg, first assay",37.30
same,"CD4+ CD8+ cell subset, relative percentage, MEAN","200 mg/kg, second assay",0.55
same,"CD4+ CD8- cell subset, relative percentage, MEAN","200 mg/kg, second assay",36.13
same,"CD4+ CD11b+ cell subset, relative percentage, MEAN","200 mg/kg, second assay",0.33
same,"CD4+ CD11b- cell subset, relative percentage, MEAN","200 mg/kg, second assay",13.10
same,"CD4- CD8+ cell subset, relative percentage, MEAN","200 mg/kg, second assay",4.95
same,"CD4- CD8- cell subset, relative percentage, MEAN","200 mg/kg, second assay",58.40
same,"CD4- CD11b+ cell subset, relative percentage, MEAN","200 mg/kg, second assay",3.20
same,"CD4- CD11b- cell subset, relative percentage, MEAN","200 mg/kg, second assay",78.38
same,"CD45+ CD4+ cell subset, relative percentage, MEAN","200 mg/kg, second assay",29.00
same,"CD45+ CD4- cell subset, relative percentage, MEAN","200 mg/kg, second assay",52.45
same,"CD45+ CD8+ cell subset, relative percentage, MEAN","200 mg/kg, second assay",5.08
same,"CD45+ CD8- cell subset, relative percentage, MEAN","200 mg/kg, second assay",78.23
same,"CD45- CD4+ cell subset, relative percentage, MEAN","200 mg/kg, second assay",8.63
same,"CD45- CD4- cell subset, relative percentage, MEAN","200 mg/kg, second assay",9.98
same,"CD45- CD8+ cell subset, relative percentage, MEAN","200 mg/kg, second assay",0.13
same,"CD45- CD8- cell subset, relative percentage, MEAN","200 mg/kg, second assay",16.60
same,"Ly5(B) cell subset, relative percentage, MEAN","200 mg/kg, second assay",46.50
same,"NK+ CD3+ cell subset, relative percentage, MEAN","200 mg/kg, second assay",2.35
same,"NK+ CD3- cell subset, relative percentage, MEAN","200 mg/kg, second assay",4.35
same,"NK- CD3+ cell subset, relative percentage, MEAN","200 mg/kg, second assay",32.15
same,"NK- CD3- cell subset, relative percentage, MEAN","200 mg/kg, second assay",61.10
same,"TCR(T) cell subset, relative percentage, MEAN","200 mg/kg, second assay",47.23

# From US5980913A, “Peptides having immunomodulatory activity” (Biochem Pharma, Inc., priority 1994, dated 1999)
